# Results published in patent US11345711B2, “8,9-dihydroimidazo[1,2-a]pyrimido[5,4-e]pyrimidin-5(6H)-ones” (IMPACT THERAPEUTICS (SHANGHAI), INC, priority 2016, dated 2022).
# Where a name gives a salt, the structure may show the parent alone. Read-outs that look alike come from different tables or passages of the source.
# How the values were obtained:
# [1] = molecular target: Wee1 (h) (Homo sapiens, UniProt P30291); assay: Wee1 kinase (h) detection method, [γ-33P]-ATP filter assay; type: biochemical
# Wee1 (h), sequence (P30291 whole entry): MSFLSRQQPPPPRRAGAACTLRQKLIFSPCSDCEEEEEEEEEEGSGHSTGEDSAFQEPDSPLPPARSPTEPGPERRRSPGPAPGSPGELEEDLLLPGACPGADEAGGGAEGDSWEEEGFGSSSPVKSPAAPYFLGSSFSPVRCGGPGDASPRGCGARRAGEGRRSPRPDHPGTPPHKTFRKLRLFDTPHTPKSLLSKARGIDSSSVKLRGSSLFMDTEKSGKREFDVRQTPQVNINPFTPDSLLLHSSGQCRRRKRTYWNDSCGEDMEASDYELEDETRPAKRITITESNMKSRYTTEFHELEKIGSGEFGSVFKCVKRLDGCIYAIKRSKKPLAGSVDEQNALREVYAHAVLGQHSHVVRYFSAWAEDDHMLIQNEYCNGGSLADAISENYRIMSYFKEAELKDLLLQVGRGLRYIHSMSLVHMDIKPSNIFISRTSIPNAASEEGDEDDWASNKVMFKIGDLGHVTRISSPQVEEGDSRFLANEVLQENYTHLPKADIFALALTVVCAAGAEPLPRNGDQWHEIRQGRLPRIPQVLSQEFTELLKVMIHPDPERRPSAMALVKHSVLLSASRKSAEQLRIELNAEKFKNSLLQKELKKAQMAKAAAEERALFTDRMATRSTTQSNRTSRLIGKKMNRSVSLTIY
# Experimental: Determination of the inhibitory effect of 6-(2-chlorophenyl)-2-((4-(4-methylpiperazin-1-yl)phenyl)amino)-8,9-dihydroimidazo[1,2-a]pyrimido[5,4-e]pyrimidin-5(6H)-one and Analogs on the Enzyme Activity of Wee1 Kinase by Using the Wee1 Kinase (h) Detection Method
# Then the stock solution of all compounds under test with 50× concentration in 100% DMSO was added to make the final concentration of 10/1/0.1/0.01 μM, and then mixed the mixture well. The reaction is initiated by the addition of the Mg/ATP mix. After incubation for 40 minutes at room temperature, the reaction is stopped by the addition of phosphoric acid to a concentration of 0.5%. […] Each compound sample is duplicated in duplicate. The negative control was lack of all the components of Wee1 enzyme, and the positive was addition of 30% phosphoric acid to terminate the reaction. The Wee1 inhibitor AZD1775 was detected at 10 μM at the same experiment condition.
# [2] = test system: LoVo cells; assay: MTT based cell viability assay on LoVo cells; conditions: Homo sapiens, LoVo, 72 h, 3 d, read-out: IC50, growth inhibition of LoVo cells
# Experimental: Determination of the cell growth inhibiting activity of 6-(2-chlorophenyl)-2-((4-(4-methylpiperazin-1-yl)phenyl)amino)-8,9-dihydroimidazo[1,2-a]pyrimido[5,4-e]pyrimidin-5(6H)-one and analogs on LoVo cells using a MTT based cell viability assay
# (§1) The thawed LoVo cells were cultured and passaged to the third generation, and the growth state was good and the confluence was about 90%, which began to be used in the experiment. The LoVo cells were digested with trypsin, centrifuged at 800 rpm for 5 min, the supernatant was discarded, resuspended with fresh culture medium, and counted. 6000 Cells are seeded to each well of a 96-well plate. The cells are incubated at 37° C. in a 5% CO2 cell culture incubator overnight. The tested sample (including the tested compound and the reference compound AZD1775) was diluted continuously to 8 concentrations (the last concentration was negative control of DMSO) with a 1:3 and 1:10 dilution in DMSO respectively: 10 μM, 3.3 μM, 1 μM, 0.33 μM, 0.1 μM, 0.033 μM, 0.01 μM, 0 μM (the final concentration of DMSO was 1%). 5 μL of each concentration was added to 120 μL of culture medium (25 times diluted), and the mixture was shaken well. The overnight cells were taken and the culture medium was removed, 195 μL of fresh culture medium was added to each well, and 5 μL of diluted culture medium containing the corresponding concentration of the tested sample was added respectively, and the culture plate was then placed in the 5% CO2 cell culture incubator at 37° C. for 3 d. After removing the original solution and adding 100 μL of fresh serum-free DMEM culture medium containing MTT (0.5 mg/mL) per well, the culture was continued. The original solution was removed after 4 hrs and 100 μl DMSO was added to each well. The 96-well cell culture plates were shaken away from light for 10 min and readed in a multifunctional reader at 552/630/690 nm to give absorption values (OD values). The data were analyzed using a commercial graphic software (Graph Pad Prism 5.0) and the inhibitory activity of the compound on cell proliferation was plotted in terms of cell survival and compound concentration. The IC50 values were fitted by the S-shaped dose-response curve equation as follows: Y=100/(1+10^(Log C-Log IC50)), where C was the concentration of testing compounds.
# [3] = test system: NCI-H1299 cells; assay: MTT based cell viability assay on NCI-H1299 cells; conditions: Homo sapiens, read-out: IC50, growth inhibition of NCI-H1299 cells
# Experimental: Determination of the cell growth inhibiting activity of 6-(2-chlorophenyl)-2-((4-(4-methylpiperazin-1-yl)phenyl)amino)-8,9-dihydroimidazo[1,2-a]pyrimido[5,4-e]pyrimidin-5(6H)-one and analogs on NCI-H1299 cells using a MTT based cell viability assay
# as §1, with “NCI-H1299” for “LoVo”, “group,” for “medium,”, “1000” for “6000”, “1‰).” for “1%).”, “C−Log” for “C-Log”
Structure (SMILES),Inh. (%) of Wee1 kinase enzyme activity ([1]; C 10 μm compound),IC50 [2],IC50 ([3]; NCI-H1299 cells),Inh. (%) of Wee1 kinase enzyme activity ([1]; C 0.01 μm compound),Inh. (%) of Wee1 kinase enzyme activity ([1]; C 0.1 μm compound),Inh. (%) of Wee1 kinase enzyme activity ([1]; C 1 μm compound),"inhibition at 0.01 µM ([1]; at 0.01 μM, read-out: inhibitory rate on Wee1 enzyme activity)","IC50 ([3]; NCI-H1299, NCI-H1299 cells)"
"CN1CCN(c2ccc(Nc3cc4c(cn3)C(=O)N(c3ccccc3Cl)C3=NCCN34)cc2)CC1 [Example 3, 4-(2-Chlorophenyl)-8-((4-(4-methylpiperazin-1-yl)phenyl)amino)-2,4-dihydroimidazo[1,2-a]pyrido[3,4-e]pyrimidin-5(1H)-one]",56%,> 100000 nM,> 10000 nM,,,,,
"CN1CCN(c2ccc(Nc3ncc4c(n3)N3CCN=C3N(c3c(Cl)cccc3Cl)C4=O)cc2)CC1 [Example 4, 6-(2,6-Dichlorophenyl)-2-((4-(4-methylpiperazin-1-yl)phenyl)amino)-8,9-dihydroimidazo[1,2-a]pyrimido[5,4-e]pyrimidin-5(6H)-one]",,169 nM,,55%,93%,97%,51%,204 nM
"Cc1cccc(Cl)c1N1C(=O)c2cnc(Nc3ccc(N4CCN(C)CC4)cc3)nc2N2CCN=C21 [Example 5, 6-(2-Chloro-6-methylphenyl)-2-((4-(4-methylpiperazin-1-yl)phenyl)amino)-8,9-dihydroimidazo[1,2-a]pyrimido[5,4-e]pyrimidin-5(6H)-one]",,431 nM,941 nM,,,88%,,
"CC(C)N1CCN(c2ccc(Nc3ncc4c(n3)N3CCN=C3N(c3c(F)cccc3Cl)C4=O)cc2)CC1 [Example 6, 6-(2-Chloro-6-fluorophenyl)-2-((4-(4-isopropylpiperazin-1-yl)phenyl)amino)-8,9-dihydroimidazo[1,2-a]pyrimido[5,4-e]pyrimidin-5(6H)-one]",,339 nM,461 nM,33%,89%,98%,,
"CC(=O)N1CCN(c2ccc(Nc3ncc4c(n3)N3CCN=C3N(c3c(F)cccc3Cl)C4=O)cc2)CC1 [Example 7, 2-((4-(4-Acetylpiperazin-1-yl)phenyl)amino)-6-(2-chloro-6-fluorophenyl)-8,9-dihydroimidazo[1,2-a]pyrimido[5,4-e]pyrimidin-5(6H)-one]",,1430 nM,1260 nM,31%,84%,96%,,
"CN1CCc2ccc(Nc3ncc4c(n3)N3CCN=C3N(c3c(F)cccc3Cl)C4=O)cc2C1 [Example 8, 6-(2-Chloro-6-fluorophenyl)-2-((2-methyl-1,2,3,4-tetrahydroisoquinolin-7-yl)amino)-8,9-dihydroimidazo[1,2-a]pyrimido[5,4-e]pyrimidin-5(6H)-one]",,202 nM,159 nM,60%,93%,99%,,
"CN1Cc2cc(Nc3ncc4c(n3)N3CCN=C3N(c3c(F)cccc3Cl)C4=O)ccc2C(C)(C)C1 [Example 9, 6-(2-Chloro-6-fluorophenyl)-2-((2,4,4-trimethyl-1,2,3,4-tetrahydroisoquinolin-7-yl)amino)-8,9-dihydroimidazo[1,2-a]pyrimido[5,4-e]pyrimidin-5(6H)-one]",,126 nM,183 nM,28%,79%,100%,,

# Second part, the compound after the results:
Inh. (%) of Wee1 kinase enzyme activity ([1]; C 10 μm compound),IC50 [2],IC50 ([3]; NCI-H1299 cells),Inh. (%) of Wee1 kinase enzyme activity ([1]; C 0.01 μm compound),Inh. (%) of Wee1 kinase enzyme activity ([1]; C 0.1 μm compound),Inh. (%) of Wee1 kinase enzyme activity ([1]; C 1 μm compound),"inhibition at 0.01 µM ([1]; at 0.01 μM, read-out: inhibitory rate on Wee1 enzyme activity)","IC50 ([3]; NCI-H1299, NCI-H1299 cells)",Structure (SMILES)
,88.7 nM,172 nM,46%,93%,98%,,,"CN1Cc2cc(Nc3ncc4c(n3)N3CCN=C3N(c3c(F)cccc3Cl)C4=O)ccc2C2(CC2)C1 [Example 10, 6-(2-Chloro-6-fluorophenyl)-2-((2′-methyl-2′,3′-dihydro-1′H-spiro[cyclopropane-1,4′-isoquinolin]-7′-yl)amino)-8,9-dihydroimidazo[1,2-a]pyrimido[5,4-e]pyrimidin-5(6H)-one]"
,37.3 nM,42.9 nM,,,,,,"Cc1cc(Nc2ncc3c(n2)N2CCN=C2N(c2c(Cl)cccc2Cl)C3=O)ccc1N1CCC(N(C)C)CC1 [Example 141, 6-(2,6-Dichlorophenyl)-2-((4-(4-(dimethylamino)piperidin-1-yl)-3-methylphenyl)amino)-8,9-dihydroimidazo[1,2-a]pyrimido[5,4-e]pyrimidin-5(6H)-one]"
,52.2 nM,56.8 nM,,,,,,"COc1cc(Nc2ncc3c(n2)N2CCN=C2N(c2c(Cl)cccc2Cl)C3=O)cc(C)c1N1CCN(C)CC1 [Example 159, 6-(2,6-Dichlorophenyl)-2-((3-methoxy-5-methyl-4-(4-methylpiperazin-1-yl)phenyl)amino)-8,9-dihydroimidazo[1,2-a]pyrimido[5,4-e]pyrimidin-5(6H)-one]"
,76.9 nM,89.9 nM,,,,,,"Cc1cc(Nc2ncc3c(n2)N2CCN=C2N(c2c(C)cccc2Cl)C3=O)cc(F)c1N1CCC(N(C)C)CC1 [Example 170, 6-(2-Chloro-6-methylphenyl)-2-((4-(4-(dimethylamino)piperidin-1-yl)-3-fluoro-5-methylphenyl)amino)-8,9-dihydroimidazo[1,2-a]pyrimido[5,4-e]pyrimidin-5(6H)-one]"
,59.5 nM,83.1 nM,,,,,,"Cc1cc(Nc2ncc3c(n2)N2CCN=C2N(c2c(Cl)cccc2Cl)C3=O)ccc1N1CCNCC1 [Example 177, 6-(2,6-Dichlorophenyl)-2-((3-methyl-4-(piperazin-1-yl)phenyl)amino)-8,9-dihydroimidazo[1,2-a]pyrimido[5,4-e]pyrimidin-5(6H)-one]"
,1490 nM,879 nM,,,,,,"CNCc1cc(Nc2ncc3c(n2)N2CCN=C2N(c2c(Cl)cccc2Cl)C3=O)ccc1N1CCOCC1 [Example 184, 6-(2,6-Dichlorophenyl)-2-((3-((methylamino)methyl)-4-morpholinophenyl)amino)-8,9-dihydroimidazo[1,2-a]pyrimido[5,4-e]pyrimidin-5(6H)-one]"
,42.4 nM,154 nM,,,,,,"CN1CCN(c2ccc(Nc3ncc4c(n3)N3CCN=C3N(c3c(Cl)cccc3Cl)C4=O)cc2Cl)CC1 [Example 186, 6-(2,6-Dichlorophenyl)-2-((3-chloro-4-(4-methylpiperazin-1-yl)phenyl)amino)-8,9-dihydroimidazo[1,2-a]pyrimido[5,4-e]pyrimidin-5(6H)-one dihydrochloride]"
